The record followed here is PMC11950852, “Diversity Scale of Library Matters: Impact of mRNA Library Diversity Scales on the Discovery of Macrocyclic Peptides Targeting a Protein by the RaPID System” (ACS Central Science, 2025).

This assay concerns the target Fc-fused MET (His-/hFc-tagged human MET ectodomain) (Homo sapiens, UniProt P08581). The assay can be described thus: SPR binding kinetics of selected macrocyclic peptides to Fc-fused MET. The following applies: for kd / Kd / kd (quoted in text) / ka: SPR conditions as E1; for kon: pH 7.4, read-out: ka; for Kd: 1:1 binding model.

The structures appear in SMILES notation. Where a SMILES comes first, the peptide text is derived from it. Bridges are numbered along the chain shown (N, C = ends).

Take `CC[C@H](C)[C@@H]1NC(=O)[C@H](Cc2ccc(O)cc2)NC(=O)CSC[C@@H](C(=O)NCC(N)=O)NC(=O)[C@H](CS)NC(=O)[C@H](CC(N)=O)NC(=O)[C@H](CS)NC(=O)[C@H](CC(N)=O)NC(=O)[C@H](Cc2c[nH]c3ccccc23)NC(=O)[C@H](CC(C)C)NC(=O)[C@H](CCCCN)NC(=O)[C@H](CO)NC(=O)[C@H](CC(N)=O)NC(=O)[C@H](Cc2ccccc2)NC(=O)[C@H](CCCNC(=N)N)NC(=O)[C@H](CC(N)=O)NC(=O)[C@H](Cc2c[nH]c3ccccc23)NC(=O)[C@H](CCC(=O)O)NC1=O` [10-4] ({CH2CO}-YIEWNRFNSKLWNCNCCG-NH2; thioether N-17): the kd was 0.00809 s⁻¹ and the kon was 26300 M⁻¹ s⁻¹.

As for `CC(C)[C@@H]1NC(=O)[C@H](CCCCN)NC(=O)[C@H](CC(=O)O)NC(=O)CNC(=O)[C@H](CC(=O)O)NC(=O)[C@H](CCCNC(=N)N)NC(=O)CNC(=O)[C@H](CC(N)=O)NC(=O)[C@H](Cc2c[nH]c3ccccc23)NC(=O)[C@H](Cc2c[nH]cn2)NC(=O)[C@H](Cc2ccc(O)cc2)NC(=O)[C@H](Cc2ccc(O)cc2)NC(=O)CSC[C@@H](C(=O)NCC(N)=O)NC(=O)[C@H](C(C)C)NC(=O)[C@H](C(C)C)NC(=O)[C@H](Cc2c[nH]c3ccccc23)NC(=O)[C@H](CCC(=O)O)NC1=O` [8-2] ({CH2CO}-YYHWNGRDGDKVEWVVCG-NH2; thioether N-17), binding was put at a Kd of 21.6 nM, the kd was determined as 0.0103 s⁻¹, the “kd (quoted in text)” value is ~10 × 10^–3 s^–1 and the kon was determined as 475000 M⁻¹ s⁻¹. The “kd (quoted in text)” value (listed as 8–2) is listed as 10.3 × 10^–3 s^–1. Besides, the “fold slower kd than other species of the E8 library” value (other species kd = ∼50 × 10^–3 s^–1) was 5 fold.

On to `CC[C@H](C)[C@@H]1NC(=O)[C@H](C(C)C)NC(=O)[C@H](CO)NC(=O)[C@H](CC(=O)O)NC(=O)[C@H](C(C)C)NC(=O)[C@H](CC(=O)O)NC(=O)[C@H](CCCCN)NC(=O)CNC(=O)[C@H](CO)NC(=O)[C@H](Cc2c[nH]c3ccccc23)NC(=O)[C@H](CO)NC(=O)[C@H](Cc2ccc(O)cc2)NC(=O)[C@H](Cc2ccc(O)cc2)NC(=O)CSC[C@@H](C(=O)NCC(N)=O)NC(=O)[C@H](CC(N)=O)NC(=O)[C@H](CC(N)=O)NC(=O)[C@H](Cc2c[nH]c3ccccc23)NC1=O` [14-2] ({CH2CO}-YYSWSGKDVDSVIWNNCG-NH2; thioether N-17), for which the kd turned out to be 0.00182 s⁻¹ and the kon stood at 464000 M⁻¹ s⁻¹.

In the case of `C[C@@H]1NC(=O)[C@H](C)NC(=O)[C@H](CC(=O)O)NC(=O)[C@H](Cc2ccc(O)cc2)NC(=O)[C@H](CCC(=O)O)NC(=O)[C@H](CCC(=O)O)NC(=O)[C@H](Cc2c[nH]c3ccccc23)NC(=O)[C@H](CCCNC(=N)N)NC(=O)CNC(=O)[C@H](CC(=O)O)NC(=O)[C@H](Cc2ccccc2)NC(=O)[C@H]([C@@H](C)O)NC(=O)[C@H](Cc2ccc(O)cc2)NC(=O)[C@H](Cc2ccc(O)cc2)NC(=O)[C@H](Cc2c[nH]c3ccccc23)NC(=O)[C@H](Cc2ccc(O)cc2)NC(=O)CSC[C@@H](C(=O)NCC(N)=O)NC1=O` [8-3] ({CH2CO}-YWYYTFDGRWEEYDAACG-NH2; thioether N-17), the “ka” value is recorded as 2.33 × 10^5 M^–1 s^–1, the kd was 0.0464 s⁻¹, the “kd (quoted in text)” value is given as 46.4 × 10^–3 s^–1 and the kon turned out to be 233000 M⁻¹ s⁻¹.

For `CC(C)C[C@@H]1NC(=O)[C@H](Cc2ccc(O)cc2)NC(=O)[C@H](Cc2c[nH]c3ccccc23)NC(=O)[C@H](CO)NC(=O)[C@H](Cc2ccc(O)cc2)NC(=O)CSC[C@@H](C(=O)NCC(N)=O)NC(=O)[C@H](Cc2ccccc2)NC(=O)[C@H](CCC(=O)O)NC(=O)[C@H](Cc2ccccc2)NC(=O)[C@H](CCCCN)NC(=O)[C@H](CCCCN)NC(=O)[C@H](Cc2c[nH]c3ccccc23)NC(=O)[C@H](CCC(N)=O)NC(=O)[C@H](C)NC(=O)[C@H](CCC(N)=O)NC(=O)[C@H](Cc2c[nH]c3ccccc23)NC(=O)[C@H](CC(N)=O)NC1=O` [6-1] ({CH2CO}-YSWYLNWQAQWKKFEFCG-NH2; thioether N-17), the Kd stood at 212 nM, the “ka” value is given as 2.44 × 10^5 M^–1 s^–1, the kd was found to be 0.0518 s⁻¹ and the “kd (quoted in text)” value was 51.8 × 10^–3 s^–1. Besides, the kon amounted to 244000 M⁻¹ s⁻¹.

Take `CC(C)C[C@@H]1NC(=O)[C@H](CCCCN)NC(=O)CNC(=O)[C@H](Cc2ccccc2)NC(=O)CNC(=O)[C@H](Cc2ccc(O)cc2)NC(=O)[C@H](C(C)C)NC(=O)[C@H](Cc2c[nH]c3ccccc23)NC(=O)[C@H](Cc2ccc(O)cc2)NC(=O)CSC[C@@H](C(=O)NCC(N)=O)NC(=O)[C@H](Cc2ccccc2)NC(=O)[C@H](C)NC(=O)[C@H](CCCNC(=N)N)NC(=O)[C@H](Cc2c[nH]c3ccccc23)NC(=O)[C@H](CC(=O)O)NC(=O)[C@H](CC(N)=O)NC(=O)[C@H](CC(N)=O)NC1=O` [14-1] ({CH2CO}-YWVYGFGKLNNDWRAFCG-NH2; thioether N-17): the kd came out at 0.000739 s⁻¹ and the kon was 257000 M⁻¹ s⁻¹.

On to `CC(C)C[C@@H]1NC(=O)[C@H](Cc2ccc(O)cc2)NC(=O)[C@H](CCC(=O)O)NC(=O)[C@H](CC(=O)O)NC(=O)[C@H](CCCNC(=N)N)NC(=O)[C@H](Cc2ccc(O)cc2)NC(=O)[C@H](Cc2c[nH]c3ccccc23)NC(=O)[C@H](Cc2ccc(O)cc2)NC(=O)[C@H](Cc2ccc(O)cc2)NC(=O)[C@H](Cc2c[nH]c3ccccc23)NC(=O)[C@H](Cc2c[nH]c3ccccc23)NC(=O)[C@H](Cc2ccc(O)cc2)NC(=O)CSC[C@@H](C(=O)NCC(N)=O)NC(=O)[C@H](CCCNC(=N)N)NC(=O)[C@H]([C@@H](C)O)NC(=O)[C@H](CCCNC(=N)N)NC(=O)[C@H](Cc2c[nH]c3ccccc23)NC1=O` [10-6] ({CH2CO}-YWWYYWYRDEYLWRTRCG-NH2; thioether N-17), for which the kd worked out at 0.00489 s⁻¹ and the kon is 22300 M⁻¹ s⁻¹.

Take `CC[C@H](C)[C@@H]1NC(=O)[C@H](Cc2ccc(O)cc2)NC(=O)CSC[C@@H](C(=O)NCC(N)=O)NC(=O)[C@H](CCCNC(=N)N)NC(=O)[C@H](C(C)C)NC(=O)[C@H](Cc2ccc(O)cc2)NC(=O)[C@H](C(C)C)NC(=O)[C@H](Cc2c[nH]c3ccccc23)NC(=O)[C@H](CO)NC(=O)[C@H](CCCCN)NC(=O)[C@H](CO)NC(=O)[C@H](CC(=O)O)NC(=O)[C@H](Cc2ccc(O)cc2)NC(=O)[C@H](C(C)C)NC(=O)[C@H](Cc2ccc(O)cc2)NC(=O)[C@H](Cc2c[nH]c3ccccc23)NC(=O)[C@H](CCC(=O)O)NC1=O` [14-6] ({CH2CO}-YIEWYVYDSKSWVYVRCG-NH2; thioether N-17): the kd is 0.00564 s⁻¹ and the kon came out at 179000 M⁻¹ s⁻¹.

Regarding `CC(C)[C@@H]1NC(=O)[C@H](C)NC(=O)[C@H](CC(=O)O)NC(=O)[C@H](Cc2ccccc2)NC(=O)[C@H](CC(=O)O)NC(=O)[C@H](CCCNC(=N)N)NC(=O)CNC(=O)[C@H]([C@@H](C)O)NC(=O)[C@H](Cc2c[nH]c3ccccc23)NC(=O)[C@H](CO)NC(=O)[C@H](Cc2ccc(O)cc2)NC(=O)[C@H](Cc2ccc(O)cc2)NC(=O)CSC[C@@H](C(=O)NCC(N)=O)NC(=O)[C@H](CCCCN)NC(=O)[C@H](CC(N)=O)NC(=O)[C@H](Cc2c[nH]c3ccccc23)NC(=O)[C@H](CCCCN)NC1=O` [14-4] ({CH2CO}-YYSWTGRDFDAVKWNKCG-NH2; thioether N-17), the kd turned out to be 0.00198 s⁻¹ and the kon worked out at 798000 M⁻¹ s⁻¹.

Take `CC(C)[C@@H]1NC(=O)[C@H](CO)NC(=O)CNC(=O)[C@H](CO)NC(=O)[C@H](Cc2c[nH]c3ccccc23)NC(=O)[C@H](CO)NC(=O)[C@H](Cc2ccc(O)cc2)NC(=O)[C@H](Cc2ccc(O)cc2)NC(=O)CSC[C@@H](C(=O)NCC(N)=O)NC(=O)[C@H](CO)NC(=O)[C@H](CC(N)=O)NC(=O)[C@H](Cc2c[nH]c3ccccc23)NC(=O)[C@H](CCCCN)NC(=O)[C@H](C(C)C)NC(=O)[C@H](CO)NC(=O)[C@H](CCC(=O)O)NC(=O)[C@H](CO)NC1=O` [10-1] ({CH2CO}-YYSWSGSVSESVKWNSCG-NH2; thioether N-17): the affinity, expressed as Kd, was 10.1 nM; the kd turned out to be 0.00878 s⁻¹; the “kd (quoted in text)” value is given as ~10 × 10^–3 s^–1; the kon is 871000 M⁻¹ s⁻¹.

For the compound `CC[C@H](C)[C@@H]1NC(=O)[C@H](Cc2ccc(O)cc2)NC(=O)CSC[C@@H](C(=O)NCC(N)=O)NC(=O)[C@@H]2CCCN2C(=O)[C@H](CCCNC(=N)N)NC(=O)[C@H](C(C)C)NC(=O)[C@H](Cc2ccccc2)NC(=O)[C@H](Cc2c[nH]c3ccccc23)NC(=O)[C@H](CC(=O)O)NC(=O)[C@H](CCCCN)NC(=O)[C@H](CO)NC(=O)[C@H](C)NC(=O)[C@H](Cc2ccc(O)cc2)NC(=O)[C@H](C)NC(=O)[C@H](Cc2ccccc2)NC(=O)[C@H](Cc2c[nH]c3ccccc23)NC(=O)[C@H](CO)NC1=O` [12-1] ({CH2CO}-YISWFAYASKDWFVRPCG-NH2; thioether N-17), the kd is 0.00254 s⁻¹, the “kd (quoted in text)” value is 2.54 × 10^–3 s^–1 and the kon worked out at 79500 M⁻¹ s⁻¹.

As to `CC(C)C[C@@H]1NC(=O)[C@H](CO)NC(=O)[C@H](Cc2ccccc2)NC(=O)[C@H](Cc2ccc(O)cc2)NC(=O)[C@H](Cc2c[nH]c3ccccc23)NC(=O)[C@H](CCCCN)NC(=O)[C@H](CCCCN)NC(=O)[C@H](CO)NC(=O)[C@H](CC(=O)O)NC(=O)[C@H](Cc2ccc(O)cc2)NC(=O)[C@H](CCC(=O)O)NC(=O)[C@H](Cc2c[nH]cn2)NC(=O)[C@H](Cc2c[nH]c3ccccc23)NC(=O)[C@H](C(C)C)NC(=O)[C@H](CC(C)C)NC(=O)[C@H](Cc2ccc(O)cc2)NC(=O)CSC[C@@H](C(=O)NCC(N)=O)NC1=O` [12-5] ({CH2CO}-YLVWHEYDSKKWYFSLCG-NH2; thioether N-17), the kd turned out to be 0.002 s⁻¹ and the kon worked out at 130000 M⁻¹ s⁻¹.
